According to ChEMBL document CHEMBL2021882, “Aglycone-focused randomization of 2-difluoromethylphenyl-type sialoside suicide substrates for neuraminidases” (Bioorg Med Chem, 2012):

Tested on: Vibrio cholerae
Description: Inhibition of Vibrio cholerae neuraminidase using 4-MU-NANA as substrate preincubated for 15 mins prior addition of substrate measured at 5 mins intervals by fluorimetry relative to control

For `COc1ncc(C(F)(F)F)cc1NC(=O)OCc1cn(-c2ccc(O[C@]3(C(=O)O)C[C@H](O)[C@@H](NC(C)=O)[C@H]([C@H](O)[C@H](O)CO)O3)c(C(F)F)c2)nn1`, the Kinact was 0.091 min⁻¹ and the T1/2 was 7.6 min.
